ChEMBL document CHEMBL3525916, “Investigation of figopitant and its metabolites in rat tissue by combining whole-body autoradiography with liquid extraction surface analysis mass spectrometry” (Drug Metab Dispos, 2012)

Tested on: Rattus norvegicus
Experiment: Retention time in albino Wistar Hannover rat treated with 5 mg/kg, iv of [14C]figopitant
Format: ADME, organism-based
Design: dose 5 mg/kg, route intravenous
Conditions: in vivo

In order of rising Retention_time:
1. CN(CCc1cc(C(F)(F)F)cc(C(F)(F)F)c1)C(=O)[C@@H](NCCN)c1ccccc1  11.9 min
2. CN(CCc1cc(C(F)(F)F)cc(C(F)(F)F)c1)C(=O)[C@H](c1ccccc1)N1CCNCC1  14.5 min
3. CN(CC(O)c1cc(C(F)(F)F)cc(C(F)(F)F)c1)C(=O)[C@H](c1ccccc1)N1CCN(CC2CC2)CC1 (stereo partly drawn)  24.2 min
